Key:
Assay in all cases: KINOMEscan competition binding
Conditions in all cases: compound 10.0 µM
[1] = test system: PIK3CA (human), P42336 [M1043I]
[2] = test system: MET (human), P08581 [M1250T]
[3] = test system: RET (human), P07949 [V804L]
[4] = test system: EGFR (human), P00533 [L858R]
[5] = test system: PIK3CA (human), P42336 [E542K]
[6] = test system: PIK3CA (human), P42336 [H1047L]
[7] = test system: KIT (human), P10721 [D816H]
[8] = test system: BMX (human), P51813 [V600E]
[9] = test system: KIT (human), P10721 [A829P]
[10] = test system: EGFR (human), P00533 [A750P; 747-749 del]
[11] = test system: FGFR3 (human), P22607 [G697C]
[12] = test system: LRRK2 (human), Q5S007 [G2019S]
[13] = test system: FLT3 (human), P36888 [D835Y]
[14] = test system: EGFR (human), P00533 [G719C]

Chain of PIK3CA (human), P42336 [H1047L] (P42336 whole entry H1047L, looked up): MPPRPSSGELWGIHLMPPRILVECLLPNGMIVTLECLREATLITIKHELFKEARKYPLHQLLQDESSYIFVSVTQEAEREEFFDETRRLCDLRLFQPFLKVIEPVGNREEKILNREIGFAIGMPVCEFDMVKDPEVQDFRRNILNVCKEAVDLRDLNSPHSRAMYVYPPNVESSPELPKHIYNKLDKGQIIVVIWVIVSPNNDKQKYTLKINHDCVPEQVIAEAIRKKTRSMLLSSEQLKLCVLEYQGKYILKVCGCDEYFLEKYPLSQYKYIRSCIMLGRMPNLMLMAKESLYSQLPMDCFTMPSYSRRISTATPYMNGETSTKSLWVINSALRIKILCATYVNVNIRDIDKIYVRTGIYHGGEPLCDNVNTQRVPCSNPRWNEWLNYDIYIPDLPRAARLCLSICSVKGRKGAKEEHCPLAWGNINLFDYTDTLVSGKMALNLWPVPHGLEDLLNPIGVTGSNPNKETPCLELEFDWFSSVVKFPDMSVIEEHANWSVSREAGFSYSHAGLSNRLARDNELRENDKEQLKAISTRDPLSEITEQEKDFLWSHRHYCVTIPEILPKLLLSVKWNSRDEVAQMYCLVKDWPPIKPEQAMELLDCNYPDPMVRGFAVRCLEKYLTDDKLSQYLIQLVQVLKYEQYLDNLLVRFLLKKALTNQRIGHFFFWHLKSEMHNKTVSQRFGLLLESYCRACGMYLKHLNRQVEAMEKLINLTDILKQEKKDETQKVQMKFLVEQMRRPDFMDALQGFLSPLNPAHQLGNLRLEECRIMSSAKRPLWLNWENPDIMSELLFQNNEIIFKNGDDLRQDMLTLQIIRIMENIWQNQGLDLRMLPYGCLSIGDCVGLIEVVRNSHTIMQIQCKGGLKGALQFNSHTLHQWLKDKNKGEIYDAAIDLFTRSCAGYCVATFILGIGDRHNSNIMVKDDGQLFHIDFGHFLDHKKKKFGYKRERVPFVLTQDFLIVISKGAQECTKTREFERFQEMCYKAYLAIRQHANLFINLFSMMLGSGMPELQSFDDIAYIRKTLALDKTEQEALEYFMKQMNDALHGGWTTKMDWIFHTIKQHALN
Chain of LRRK2 (human), Q5S007 [G2019S] (Q5S007 whole entry G2019S, looked up): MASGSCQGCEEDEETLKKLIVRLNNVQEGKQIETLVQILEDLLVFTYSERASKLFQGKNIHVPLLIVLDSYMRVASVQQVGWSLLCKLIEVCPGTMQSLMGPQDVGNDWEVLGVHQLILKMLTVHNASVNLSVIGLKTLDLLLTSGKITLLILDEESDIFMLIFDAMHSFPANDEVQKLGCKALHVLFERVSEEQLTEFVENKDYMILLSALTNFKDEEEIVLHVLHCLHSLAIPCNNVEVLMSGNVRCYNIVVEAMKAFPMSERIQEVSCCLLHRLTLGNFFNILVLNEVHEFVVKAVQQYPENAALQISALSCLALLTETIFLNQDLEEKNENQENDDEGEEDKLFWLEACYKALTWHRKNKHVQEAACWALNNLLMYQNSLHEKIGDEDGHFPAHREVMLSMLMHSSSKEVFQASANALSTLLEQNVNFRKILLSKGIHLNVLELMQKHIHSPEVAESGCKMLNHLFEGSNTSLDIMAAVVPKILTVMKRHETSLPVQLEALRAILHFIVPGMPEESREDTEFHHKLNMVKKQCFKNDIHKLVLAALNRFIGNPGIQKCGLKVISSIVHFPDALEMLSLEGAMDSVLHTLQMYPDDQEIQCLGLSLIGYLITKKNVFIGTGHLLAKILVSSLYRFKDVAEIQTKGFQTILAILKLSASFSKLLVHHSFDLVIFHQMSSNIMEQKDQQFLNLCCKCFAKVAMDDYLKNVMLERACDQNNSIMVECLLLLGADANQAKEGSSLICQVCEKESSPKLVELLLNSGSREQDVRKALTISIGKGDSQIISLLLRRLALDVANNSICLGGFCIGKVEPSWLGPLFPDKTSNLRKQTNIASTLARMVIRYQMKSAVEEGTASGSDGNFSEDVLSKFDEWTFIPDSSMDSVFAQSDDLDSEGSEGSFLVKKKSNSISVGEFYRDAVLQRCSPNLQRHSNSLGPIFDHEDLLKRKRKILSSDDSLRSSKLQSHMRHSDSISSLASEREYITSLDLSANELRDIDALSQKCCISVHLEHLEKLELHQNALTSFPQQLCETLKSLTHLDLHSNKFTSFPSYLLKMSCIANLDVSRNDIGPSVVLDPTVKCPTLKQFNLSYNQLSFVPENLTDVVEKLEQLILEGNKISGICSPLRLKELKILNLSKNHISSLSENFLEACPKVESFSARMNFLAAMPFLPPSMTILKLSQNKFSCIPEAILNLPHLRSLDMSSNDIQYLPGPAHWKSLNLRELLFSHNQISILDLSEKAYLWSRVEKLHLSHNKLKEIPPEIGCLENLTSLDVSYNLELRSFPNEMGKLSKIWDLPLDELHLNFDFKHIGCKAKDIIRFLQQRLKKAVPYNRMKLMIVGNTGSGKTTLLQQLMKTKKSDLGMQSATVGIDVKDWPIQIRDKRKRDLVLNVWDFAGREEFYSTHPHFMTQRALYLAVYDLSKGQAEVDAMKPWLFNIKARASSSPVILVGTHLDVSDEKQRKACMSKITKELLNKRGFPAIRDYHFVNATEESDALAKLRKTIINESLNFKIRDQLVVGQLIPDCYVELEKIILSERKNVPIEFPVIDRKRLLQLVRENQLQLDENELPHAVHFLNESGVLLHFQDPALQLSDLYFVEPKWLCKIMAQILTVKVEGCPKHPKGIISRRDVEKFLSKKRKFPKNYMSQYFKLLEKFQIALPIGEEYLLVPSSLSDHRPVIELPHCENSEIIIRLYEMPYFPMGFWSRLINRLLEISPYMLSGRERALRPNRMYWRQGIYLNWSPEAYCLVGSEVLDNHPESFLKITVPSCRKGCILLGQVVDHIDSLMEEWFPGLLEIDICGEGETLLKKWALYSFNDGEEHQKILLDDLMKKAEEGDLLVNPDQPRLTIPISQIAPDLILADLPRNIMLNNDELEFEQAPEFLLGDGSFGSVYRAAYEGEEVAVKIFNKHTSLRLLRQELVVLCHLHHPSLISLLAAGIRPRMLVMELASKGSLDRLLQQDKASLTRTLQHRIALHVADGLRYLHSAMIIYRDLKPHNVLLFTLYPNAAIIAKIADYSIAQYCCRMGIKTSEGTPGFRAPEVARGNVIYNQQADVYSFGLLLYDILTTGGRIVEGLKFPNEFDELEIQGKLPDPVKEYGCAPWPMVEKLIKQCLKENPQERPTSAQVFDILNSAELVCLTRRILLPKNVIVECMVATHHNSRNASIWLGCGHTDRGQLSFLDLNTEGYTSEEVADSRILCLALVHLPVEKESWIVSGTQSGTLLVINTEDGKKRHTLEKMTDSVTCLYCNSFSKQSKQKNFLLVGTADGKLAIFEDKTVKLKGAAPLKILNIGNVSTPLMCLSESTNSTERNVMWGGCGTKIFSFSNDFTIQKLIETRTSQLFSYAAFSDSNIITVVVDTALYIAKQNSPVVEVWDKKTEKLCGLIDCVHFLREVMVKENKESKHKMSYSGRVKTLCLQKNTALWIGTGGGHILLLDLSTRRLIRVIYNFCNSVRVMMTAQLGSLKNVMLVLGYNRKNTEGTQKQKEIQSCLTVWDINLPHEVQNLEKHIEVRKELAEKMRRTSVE
Chain of RET (human), P07949 [V804L] (P07949 whole entry V804L, looked up): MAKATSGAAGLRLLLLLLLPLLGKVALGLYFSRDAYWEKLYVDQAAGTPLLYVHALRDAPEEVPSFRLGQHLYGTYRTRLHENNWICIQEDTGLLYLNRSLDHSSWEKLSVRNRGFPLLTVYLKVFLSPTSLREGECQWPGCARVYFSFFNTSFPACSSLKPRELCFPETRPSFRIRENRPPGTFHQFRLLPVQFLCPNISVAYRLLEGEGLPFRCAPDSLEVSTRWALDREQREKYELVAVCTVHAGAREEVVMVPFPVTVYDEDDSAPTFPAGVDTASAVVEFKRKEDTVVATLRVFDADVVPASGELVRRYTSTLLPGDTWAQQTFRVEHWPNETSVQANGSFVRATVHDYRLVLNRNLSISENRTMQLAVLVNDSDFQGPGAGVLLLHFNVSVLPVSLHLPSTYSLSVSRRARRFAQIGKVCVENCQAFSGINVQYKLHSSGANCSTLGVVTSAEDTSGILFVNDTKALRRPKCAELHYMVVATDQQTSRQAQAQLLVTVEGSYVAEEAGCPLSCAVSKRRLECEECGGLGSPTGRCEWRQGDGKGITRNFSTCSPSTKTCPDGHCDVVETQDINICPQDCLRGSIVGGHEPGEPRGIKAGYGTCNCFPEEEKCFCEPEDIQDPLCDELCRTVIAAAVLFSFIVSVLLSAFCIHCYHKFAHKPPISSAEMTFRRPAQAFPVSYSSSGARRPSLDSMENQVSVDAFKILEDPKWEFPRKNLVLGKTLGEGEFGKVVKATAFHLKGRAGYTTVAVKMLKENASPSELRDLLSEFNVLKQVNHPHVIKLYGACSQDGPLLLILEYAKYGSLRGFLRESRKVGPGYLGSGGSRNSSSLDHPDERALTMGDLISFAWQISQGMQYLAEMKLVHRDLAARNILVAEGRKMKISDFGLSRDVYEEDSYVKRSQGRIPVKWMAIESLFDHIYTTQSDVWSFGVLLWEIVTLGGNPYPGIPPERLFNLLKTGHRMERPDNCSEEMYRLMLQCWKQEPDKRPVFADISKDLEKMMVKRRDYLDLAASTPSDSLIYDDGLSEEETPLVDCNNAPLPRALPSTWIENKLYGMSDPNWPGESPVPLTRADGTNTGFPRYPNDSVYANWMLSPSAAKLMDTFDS
Chain of PIK3CA (human), P42336 [E542K] (P42336 whole entry E542K, looked up): as the sequence (P42336 whole entry H1047L, looked up) above, with E542K, L1047H counted along it
Chain of PIK3CA (human), P42336 [M1043I] (P42336 whole entry M1043I, looked up): as the sequence (P42336 whole entry H1047L, looked up) above, with M1043I, L1047H counted along it

Compound	kinase still bound, per cent of control [1] [%]	kinase still bound, per cent of control [2] [%]	kinase still bound, per cent of control [3] [%]	kinase still bound, per cent of control [4] [%]	kinase still bound, per cent of control [5] [%]	kinase still bound, per cent of control [6] [%]	kinase still bound, per cent of control [7] [%]	kinase still bound, per cent of control [8] [%]	kinase still bound, per cent of control [9] [%]	kinase still bound, per cent of control [10] [%]	kinase still bound, per cent of control [11] [%]	kinase still bound, per cent of control [12] [%]	kinase still bound, per cent of control [13] [%]	kinase still bound, per cent of control [14] [%]
CCN1CCN(Cc2ccc(Nc3ncc4c(n3)N(C)c3ccccc3C(=O)N4C)cc2C(F)(F)F)CC1	15	71	0.9	76	24	1.8	65	100	59	79	31	18	3.5	89
O=C1Nc2ccc(I)cc2/C1=C/c1cc(Br)c(O)c(Br)c1	76	80	100	32	84	97	99	0.1	93	36	76	9	13	80
O=C(NC1CC1)c1cccc(-c2ccc3c(NC(=O)C4CC4)n[nH]c3c2)c1	92	73	96	93	100	98	75	65	76	82	100	87	15	73
COc1ccc(N(C(=O)Oc2c(C)cccc2C)c2ccnc(Nc3ccc(N4CCN(C)CC4)cc3)n2)c(OC)c1	99	5.4	85	0	100	100	44	38	56	1	2.6	84	5.2	0.25
CCN1CCN(C(=O)Cc2ccc(Nc3ncc(F)c(Nc4ccc(C(=O)Nc5ccccc5Cl)cc4)n3)cc2)CC1	100	11	3.2	28	84	100	25	43	64	11	21	53	0.15	46
CN(C)C/C=C/C(=O)Nc1ccc(C(=O)Nc2cccc(Nc3nccc(-c4cccnc4)n3)c2)cc1	100	100	84	99	100	100	51	63	64	100	84	76	18	83
C=CC(=O)Nc1cc(NC(=O)c2ccc(C)c(NC(=O)c3ccno3)c2)cc(C(F)(F)F)c1	93	86	100	100	88	73	75	19	54	100	91	85	100	94
C=CC(=O)Nc1cccc(Nc2nc(N[C@H]3CC[C@H](N(C)C)CC3)nc3c2ncn3C(C)C)c1	100	100	80	99	100	100	27	85	23	76	99	45	0.85	79
COc1cc2ncnc(-n3nc(-c4ccccn4)nc3N)c2cc1OC	36	44	54	55	48	17	12	23	33	44	100	41	3.4	24
O=C1NC(=O)/C(=C/c2ccc3nccc(-c4ccncc4)c3c2)S1	0	40	100	43	0.2	27	89	41	88	47	100	58	28	54
CN(C)C/C=C/C(=O)Nc1cccc(Nc2ncc3c(n2)N(C)c2ccccc2C(=O)N3C)c1	39	43	0.15	73	39	16	33	59	40	71	12	6.1	1.4	14

Source: the kinase profiling compilation of Christmann-Franck et al. (2016)
